Results as given in BindingDB's records for doi:10.7270/Q2F47MJ9 (Emory University, 2007).

Target: T1, Estrogen receptor (Homo sapiens, UniProt P03372)
T1 sequence (P03372 whole entry): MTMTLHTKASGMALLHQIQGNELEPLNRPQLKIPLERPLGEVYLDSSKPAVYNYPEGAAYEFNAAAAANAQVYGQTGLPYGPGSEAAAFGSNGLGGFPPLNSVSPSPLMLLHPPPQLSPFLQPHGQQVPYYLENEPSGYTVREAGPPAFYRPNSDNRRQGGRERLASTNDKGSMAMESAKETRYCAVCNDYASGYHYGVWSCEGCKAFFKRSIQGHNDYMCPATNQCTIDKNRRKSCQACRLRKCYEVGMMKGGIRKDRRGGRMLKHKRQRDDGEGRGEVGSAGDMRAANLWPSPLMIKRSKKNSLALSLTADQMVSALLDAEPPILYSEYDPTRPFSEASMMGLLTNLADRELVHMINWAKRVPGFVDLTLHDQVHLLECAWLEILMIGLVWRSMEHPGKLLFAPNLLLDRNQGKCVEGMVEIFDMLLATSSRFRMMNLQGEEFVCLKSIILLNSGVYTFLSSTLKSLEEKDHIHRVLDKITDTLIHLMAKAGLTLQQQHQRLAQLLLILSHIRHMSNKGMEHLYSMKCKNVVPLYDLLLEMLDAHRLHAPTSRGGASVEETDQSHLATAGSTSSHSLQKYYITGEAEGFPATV
Assay: ERα coactivator recruitment enhancers – biochemical, TR-FRET, ERα LBD, dose response (AID 737)

Row | Structure (SMILES) | EC50 [µM]
1 | Cc1ccc(-c2n[nH]c(=S)n2NC=CCc2ccccc2[N+](=O)[O-])cc1 | 6.52
2 | CCc1[nH]nc2c1C(c1cccc(OC(=O)N3CCOCC3)c1)C(C#N)C(=N)O2 (stereo unspecified) [3-(6-amino-5-cyano-3-ethyl-1,4-dihydropyrano[2,3-c]pyrazol-4-yl)phenyl morpholine-4-carboxylate] | 6.39
3 | O=C1c2ccccc2C(=O)C1c1ccnc2ccccc12 [2-(1H-quinolin-4-ylidene)indane-1,3-quinone] | 6.74
4 | CCn1c(=NC(=O)c2ccc(-n3c(O)ccc3O)cc2)sc2c(OC)ccc(OC)c21 [4-[2,5-bis(oxidanylidene)pyrrolidin-1-yl]-N-(3-ethyl-4,7-dimethoxy-1,3-benzothiazol-2-ylidene)benzamide] | 7.94

The next lines start with the values.

Row | EC50 [µM] | Structure (SMILES)
5 | 25.1 | CCOc1ccc(Cc2sc(Nc3ccccn3)nc2O)cc1 [5-(4-Ethoxy-benzyl)-2-[(Z)-pyridin-2-ylimino]-thiazolidin-4-one]
6 | 17.5 | CCOc1ccccc1C1c2c(-c3ccccc3)noc2N=C(N)C1C#N (stereo unspecified) [6-amino-4-(2-ethoxyphenyl)-3-phenyl-2,4-dihydroisoxazolo[5,4-b]pyridine-5-carbonitrile]
